{"source": "patent US8299083B2", "about": "“PDE5 inhibitor compositions and methods for treating cardiac indications” (The Johns Hopkins University, priority 2004, dated 2012)", "format_in_all_cases": "in vivo, mouse", "key": {"[1]": {"system": "C57BL/6 mice, pressure overload by transverse aortic constriction", "assay": "Serial echocardiography in conscious mice with transverse aortic constriction (TAC)", "conditions": "for EF (ejection fraction) / HR (heart rate) / LV Dim (dia) / LV Dim (sys) / LV Mass (estimated, truncated ellipsoid model) / Wall Thickness: sildenafil treated"}, "AktTG and NTG mice": {"system": "AktTG and NTG mice", "assay": "Transgenic mice with cardiac-targeted Akt overexpression (AktTG) and NTG controls: pressure-volume analysis, echo, heart weight", "conditions": "for EDP / EDV / EF / ESP / ESV / Eesn / HR / PMXI / Tau / dP/dtmax/IP / dPdtmax / dPdtmin: sildenafil 100 mg/kg/day", "procedure": "In vehicle-treated animals (age 4-5 months), AktTG hearts were larger and had reduced heart function (FIG. 10E and Table 3). […]\nTransthoracic two-dimensional guided M-mode echocardiography was performed in non-anesthetized mice. Measurements were done using an echocardiography system, the SEQUOIA C256 (Siemens, Munich, Del.) with the 15 MHz linear-array transducer. Intact heart hemodynamic analysis was performed as described^90. These studies employed a four-electrode pressure-volume catheter (model SPR-839, Millar Instruments) placed through the left ventricular apex in the open chest anesthetized animal and positioned along the longitudinal axis to record chamber volume by impedance and pressure by micromanometry.\nAll hemodynamic data were recorded using custom developed software, digitizing signals at 2 KHz. End-diastolic and end-systolic volumes were the average of volumes measured during isovolumic contraction and relaxation, respectively. ESP was the pressure at maximal chamber elastance (P/V ratio)^1. EDP was the diastolic pressure at the lower right hand corner of the pressure-volume loop. Cardiac output was determined from a perivascular flow probe (Transonics, Ithica, N.Y.) placed around the thoracic aorta. Ea was equal to the ratio of end-systolic pressure divided by stroke volume. The volume catheter signal was calibrated for both gain and offset. Gain was determined by setting the catheter-derived cardiac output (equal to pressure-volume loop width times heart rate) to that obtained from the calibrated flow probe value. Offset was determined using the hypertonic saline method Ventricular power was equal to the instantaneous product of pressure times flow, and the peak power was divided by EDV to obtain the power index PMXI^79. […] The slope of this relation Ees was normalized by heart mass and expressed per gm heart mass. Msw was derived from the linear relation between stroke work and EDV from the same set of variably loaded cardiac cycles used to derive Eesn, and is another load-independent assessment of systolic contractile function^4. Tau was obtained from the model: P=Po+ae^−t/□ . . . fitting data during isovolumic relaxation. dP/dt was derived from a digital filter (5-point weighted slope). PFR/EDV was derived from the maximal first derivative of the volume signal during early diastole, divided by EDV."}, "[2]": {"system": "C57BL/6 mice, pressure overload by transverse aortic constriction", "assay": "TAC-induced cardiac hypertrophy, remodeling and fibrosis (heart weight/tibia length, histology)", "source_text": "TAC induced marked heart chamber and cellular hypertrophy (+100% by 3-weeks) that progressed to chamber dilation with reduced fractional shortening after 9 weeks. […] TAC induced a time-dependent increase in myocardial fibrosis and myocyte hypertrophy and both were suppressed by PDE5A inhibition (FIG. 1C, e.g. 67% reduction in fibrosis in 9-week hearts, p<0.0001).\nPressure overload was produced by transverse aortic constriction.\nHearts were fixed with 10% formalin overnight, then embedded in paraffin, sectioned at 5 μm thickness and stained with PAS methenamine. Cardiomyocyte diameter and interstitial collagen fraction were determined using computer-assisted image analysis (Adobe Photoshop 5.0, NIH Image J), with the observer blinded as to tissue source. At least 4-5 different hearts, with five separate fields of cells (total 50-70 cells for each heart) were quantified for cellular analysis."}, "PKG-1": {"system": "PKG-1", "assay": "Whole heart PKG-1 activity", "conditions": "chronic treatment", "procedure": "PI3Kα activity was assessed by Elisa assay following immunoprecipitation of PI3K (Seize X IP Kit, Pierce) using a p85α monoclonal antibody (Cell Signaling), with activity measured by fluorescence polarization (Molecular Devices, Perkin-Elmer Victor 3 plate reader). Akt activity (IP with s473-pAkt Ab, GSK-3 fusion protein substrate) was performed using a commercial kit (Cell Signaling Technology, Beverly, Mass.). PKG-1 activity was assayed by calorimetric analysis, CycLex (Clinisciences, Montrouge, FR) from whole heart lysates."}, "ERK1/2": {"system": "ERK1/2", "assay": "ERK1/2 activation in TAC hearts (Western blot)", "procedure": "Protein was prepared from snap-frozen heart tissue using extraction buffer as described previously^90. Antibodies included calcineurin (1:2000 dilution, BD Transduction Laboratories (San Diego, Calif.), GSK3β, Ser9-phospho-GSK313, Akt, Ser473-phospho-Akt, ERK, Thr202/Thr204-phospho-ERK (1:1000 dilution, Cell Signaling Technology, Beverly, Mass.). Primary antibody binding was visualized by horse radish peroxidase-conjugated secondary antibodies and enhanced chemiluminescence (Pierce, Rockford, Ill.)."}, "MMP-2 and MMP-9": {"system": "MMP-2 and MMP-9", "assay": "Cardiac gelatinase zymography", "conditions": "3W TAC, co-treatment", "procedure": "In Vitro gelatin lysis by MMP-2 and MMP-9 was assessed by zymography. Briefly, modified Laemmli buffer without mercaptoethanol was added to lysed tissue samples and loaded on 10% gelatin (Invitrogen Corp., San Diego, Calif.). After electrophoresis, gels were washed twice with renaturing buffer at room temperature followed by developing buffer (Invitrogen Corp., San Diego, Calif.), then stained with a commercially available Coomassie stain to visualize lytic bands (SIMPLYBLUe, Invitrogen Corp., San Diego, Calif.)."}, "[3]": {"conditions": "1-week TAC, then 2 weeks treatment"}}, "data": [{"molecule": "CCCc1nn(C)c2c(=O)[nH]c(-c3cc(S(=O)(=O)N4CCN(C)CC4)ccc3OCC)nc12", "note": "[sildenafil]", "values": [{"measurement": "serial echocardiography, established hypertrophy", "setting": "[1]; [3]", "result": "gradual decline in LV mass and wall thickness, with preservation of systolic ejection"}, {"measurement": "EF (ejection fraction)", "setting": "[1]; Control (sham)", "result": "96.5 ± 0.2", "unit": "%"}, {"measurement": "HR (heart rate)", "setting": "[1]; Control (sham)", "result": "634 ± 9", "unit": "min⁻¹"}, {"measurement": "LV Dim (dia)", "setting": "[1]; Control (sham)", "result": "2.87 ± 0.09", "unit": "mm"}, {"measurement": "LV Dim (sys)", "setting": "[1]; Control (sham)", "result": "0.89 ± 0.05", "unit": "mm"}, {"measurement": "LV Mass (estimated, truncated ellipsoid model)", "setting": "[1]; Control (sham)", "result": "59.1 ± 5.6", "unit": "mg"}, {"measurement": "Wall Thickness", "setting": "[1]; Control (sham)", "result": "0.71 ± 0.02", "unit": "mm"}, {"measurement": "EF (ejection fraction)", "setting": "[1]; TAC-3 wks", "result": "93.4 ± 1.1", "unit": "%"}, {"measurement": "HR (heart rate)", "setting": "[1]; TAC-3 wks", "result": "595 ± 7", "unit": "min⁻¹"}, {"measurement": "LV Dim (dia)", "setting": "[1]; TAC-3 wks", "result": "3.09 ± 0.06", "unit": "mm"}, {"measurement": "LV Dim (sys)", "setting": "[1]; TAC-3 wks", "result": "1.17 ± 0.08", "unit": "mm"}, {"measurement": "LV Mass (estimated, truncated ellipsoid model)", "setting": "[1]; TAC-3 wks", "result": "82.2 ± 5.0", "unit": "mg"}, {"measurement": "Wall Thickness", "setting": "[1]; TAC-3 wks", "result": "0.82 ± 0.02", "unit": "mm"}, {"measurement": "EF (ejection fraction)", "setting": "[1]; TAC-6 wks", "result": "74.9 ± 7.1", "unit": "%"}, {"measurement": "HR (heart rate)", "setting": "[1]; TAC-6 wks", "result": "617 ± 18", "unit": "min⁻¹"}, {"measurement": "LV Dim (dia)", "setting": "[1]; TAC-6 wks", "result": "3.67 ± 0.24", "unit": "mm"}, {"measurement": "LV Dim (sys)", "setting": "[1]; TAC-6 wks", "result": "2.24 ± 0.37", "unit": "mm"}, {"measurement": "LV Mass (estimated, truncated ellipsoid model)", "setting": "[1]; TAC-6 wks", "result": "115.6 ± 14.2", "unit": "mg"}, {"measurement": "Wall Thickness", "setting": "[1]; TAC-6 wks", "result": "0.86 ± 0.03", "unit": "mm"}, {"measurement": "EF (ejection fraction)", "setting": "[1]; TAC-9 wks", "result": "71.7 ± 9.9", "unit": "%"}, {"measurement": "HR (heart rate)", "setting": "[1]; TAC-9 wks", "result": "608 ± 25", "unit": "min⁻¹"}, {"measurement": "LV Dim (dia)", "setting": "[1]; TAC-9 wks", "result": "4.14 ± 0.36", "unit": "mm"}, {"measurement": "LV Dim (sys)", "setting": "[1]; TAC-9 wks", "result": "2.54 ± 0.57", "unit": "mm"}, {"measurement": "LV Mass (estimated, truncated ellipsoid model)", "setting": "[1]; TAC-9 wks", "result": "142.5 ± 21.5", "unit": "mg"}, {"measurement": "Wall Thickness", "setting": "[1]; TAC-9 wks", "result": "0.86 ± 0.03", "unit": "mm"}, {"measurement": "progressive hypertrophy in AktTG mice (serial echo, heart weight/tibia length)", "setting": "AktTG and NTG mice; AktTG, 6-week period", "result": "did not blunt progressive hypertrophy"}, {"measurement": "EDP", "setting": "AktTG and NTG mice; AktTG", "result": "8.9 ± 1.1"}, {"measurement": "EDV", "setting": "AktTG and NTG mice; AktTG", "result": "57.6 ± 5.4"}, {"measurement": "EF", "setting": "AktTG and NTG mice; AktTG", "result": "31.8 ± 2.1"}, {"measurement": "ESP", "setting": "AktTG and NTG mice; AktTG", "result": "90.1 ± 0.9"}, {"measurement": "ESV", "setting": "AktTG and NTG mice; AktTG", "result": "39.6 ± 4.5"}, {"measurement": "Eesn", "setting": "AktTG and NTG mice; AktTG", "result": "21.5 ± 2.9"}, {"measurement": "HR", "setting": "AktTG and NTG mice; AktTG", "result": "569.5 ± 47.4"}, {"measurement": "PMXI", "setting": "AktTG and NTG mice; AktTG", "result": "17.8 ± 1.9"}, {"measurement": "Tau", "setting": "AktTG and NTG mice; AktTG", "result": "10.0 ± 0.6"}, {"measurement": "dP/dtmax/IP", "setting": "AktTG and NTG mice; AktTG", "result": "128.5 ± 2.9"}, {"measurement": "dPdtmax", "setting": "AktTG and NTG mice; AktTG", "result": "6993 ± 156"}, {"measurement": "dPdtmin", "setting": "AktTG and NTG mice; AktTG", "result": "−6241 ± 289"}, {"measurement": "EDP", "setting": "AktTG and NTG mice; NTG", "result": "4.9 ± 1.2"}, {"measurement": "EDV", "setting": "AktTG and NTG mice; NTG", "result": "44.5 ± 4.9"}, {"measurement": "EF", "setting": "AktTG and NTG mice; NTG", "result": "56.7 ± 3.5"}, {"measurement": "ESP", "setting": "AktTG and NTG mice; NTG", "result": "96.7 ± 4.7"}, {"measurement": "ESV", "setting": "AktTG and NTG mice; NTG", "result": "19.4 ± 3.0"}, {"measurement": "Eesn", "setting": "AktTG and NTG mice; NTG", "result": "39.9 ± 1.5"}, {"measurement": "HR", "setting": "AktTG and NTG mice; NTG", "result": "511.6 ± 31.4"}, {"measurement": "PMXI", "setting": "AktTG and NTG mice; NTG", "result": "25.9 ± 2.2"}, {"measurement": "Tau", "setting": "AktTG and NTG mice; NTG", "result": "7.4 ± 0.6"}, {"measurement": "dP/dtmax/IP", "setting": "AktTG and NTG mice; NTG", "result": "176.4 ± 14.8"}, {"measurement": "dPdtmax", "setting": "AktTG and NTG mice; NTG", "result": "10133 ± 791"}, {"measurement": "dPdtmin", "setting": "AktTG and NTG mice; NTG", "result": "−9267 ± 417"}, {"measurement": "myocyte hypertrophy and interstitial fibrosis, established hypertrophy", "setting": "[2]; [3]", "result": "both reversed towards baseline"}, {"measurement": "reduction in fibrosis", "setting": "[2]; 9-week TAC hearts", "result": 67, "unit": "%"}, {"measurement": "TAC-induced hypertrophy and chamber remodeling", "setting": "[2]; TAC mice, concurrent oral treatment", "result": "inhibited"}, {"measurement": "reduction of cardiac hypertrophy (heart weight/tibia length)", "setting": "[2]; TAC mice, sildenafil 100 mg/kg/day", "result": "more than 50%"}, {"measurement": "effect on sham-operated controls", "setting": "[2]; sham-operated mice", "result": "no impact"}, {"measurement": "whole heart PKG-1 activity", "setting": "PKG-1; TAC hearts", "result": "more than doubled PKG-1 activity"}, {"measurement": "whole heart PKG-1 activity", "setting": "PKG-1; sham controls", "result": "no effect on activity"}, {"measurement": "ERK1/2 activation (phospho/total)", "setting": "ERK1/2; 1-week TAC", "result": "suppressed"}, {"measurement": "ERK1/2 activation (phospho/total)", "setting": "ERK1/2; 9-weeks TAC", "result": "no demonstrable effect"}, {"measurement": "gelatinase activity (gel lysis)", "setting": "MMP-2 and MMP-9", "result": "largely inhibited"}]}]}
